Laboratory results from patent publication US9901566B1, “Limonoids for treating autoimmune diseases” (Macau University of Science and Technology, priority 2017, dated 2018).
Several values for one entry are separate records, joined by “and”; a condition that tells them apart may be missing. Identical values can stand only once. Entries after “also recorded” stand apart in the source; their conditions may differ.

Legend:
[1] = system: human peripheral blood mononuclear cells (PBMCs); assay: Cell viability (MTT) assay of human PBMCs; assay type: cell-based; details: concentration of up to 50 μM, 72 h
Protocol: Human peripheral blood mononuclear cells have been isolated from buffy coat. In brief, the buffy coat provided by Macao Blood Transfusion Centre was mixed with normal saline, and then added to 50 mL centrifuge tube containing Ficoll-Pague plus (Amersham Biosciences). The mixture was separated into several layers after centrifuged at 350 g for 35 min. The layer of mononuclear cells has been collected, and then washed twice by normal saline. These cells were be used for the experiments.
Human PBMCs (1×10^5/well) were cultured in 96-well plates in triplicate in RPMI 1640 medium (Gibco, Paisley, UK) with 10% fetal bovine serum (FBS; Gibco), penicillin (100 units/mL) and streptomycin (100 μg/mL), and different concentration of Amotsangin A, B, C and D were added for 72 h. MTT (5 mg/mL) was added to the cells followed by 4 h incubation, followed by addition of solvent (10% sodium dodecyl sulfate (SDS), 50% N, N-dimethyl formamide, pH 7.2) to dissolve the purple precipitate. The absorbance was recorded on a Microplate UV/VIS Spectrophotometer (TECAN, Switzerland) at 570 nm wavelength on the following day. The percentage of cell viability was calculated using the following formula: Cell viability (%)=(ODtreated−ODblank)/(ODcontrol−ODblank)×100.

[2] = system: ROR-γt luciferase reporter activity; assay: Lightswitch luciferase reporter assay (ROR Gamma T LUCPorter stable reporter HEK293 cells); assay type: cell-based; details: 16 h
Protocol: ROR Gamma T LUCPorter™ Stable Reporter cells and LUCPorter™ Vector Control HEK293 cells (Imgenex) were plated in 96-well plates at 5×10^4 cells/well in triplicate in RPMI 1640 medium with 10% fetal bovine serum, penicillin (100 units/mL), streptomycin (100 μg/mL) and puromycin (3 μg/mL) over night. […] Then the complete mixture of luciferase assay reagent (Biocompare, Texas, USA) has been added to the wells and the mixture has been incubated for 30 min at room temperature in the dark. The mixture has been transferred into a 96 well white plates before reading. Finally, each well was read for 2 seconds in a plate luminometer on a Microplate UV/VIS Spectrophotometer (TECAN, Switzerland). Data are obtained from three independent experiments.

ROR-γt protein = assay: Western blotting of ROR-γt expression in ROR-γt-plasmid transfected HEK293 cells; assay type: cell-based, human; details: 24 h
Protocol: The transfection assay is preformed according to the manufacturer's instruction of lipofectamine LTX (invitrogen, USA). In brief, HEK293 cells obtained from the American Type Culture Collection (ATCC, Manassas, Va., USA) were seeded in 1.5 ml of DMEM growth media plus 10% FBS at 5×10^5 cells per well. Five hundred micro liter Opti-MEM Reduced Serum Media containing 1.25 μg of DNA was added to the cells to be transfected, and then 1.25 μl of PLUS was added into the above diluted Opti-MEM:DNA solution, gently mixed and incubated for another 5 min at room temperature. Subsequently, lipofectamine LTX™ Reagent was added into the above solution, mixed gently and then incubated 30 min at room temperature to form DNA-lipofectamine LTX Reagent complexes. Finally, 500 μl of the DNA-lipofectamine LTX Reagent complexes was directly added to each well containing cells and mixed gently. The cells were incubated at 37° C. in a CO2 incubator for another 24 h.
After incubated for 24 h, the transfected HEK293 cells were treated with different concentrations of Amotsangin A, B, C or D for another 24 h. Then the cells were lysed with RIPA buffer containing 1× protease inhibitor mix (Roche, USA) to harvest total cellular proteins, and the protein concentration was calculated by the bicinchoninic acid (BCA) kit (Pierce, Rockford, Ill.). The total cellular proteins were then subjected to electrophoresis in 10% SDS/PAGE and transferred to nitrocellulose membranes. After blocking with 5% non-fat milk in a Tris-buffered saline-0.1% Tween-20 buffer (TBST), the membrane was subsequently incubated with specific primary antibodies (RORγt antibody (eBioscience, San Diego, USA) or β-actin antibody (Santa Cruz, USA)) and HRP-conjugated secondary antibodies. A chemiluminescence (ECL) detection system was used to detect the antibody-bound proteins on the membrane.

Th17 differentiation = assay: Flow cytometry, Th17 differentiation of naive CD4+ T cells (IL-17 production); assay type: cell-based, C57BL/6 mice; details: Th17-polarizing conditions; for ratio of the IL-17 production: 3 days; for Th17 cell differentiation (effect in words): up to 25 μM (Amotsangin C up to 10 μM)
Protocol: (§1) Naive CD4^+ T cells were sorted by magnetic bead (Miltenyi Biotec) from spleen of C57BL/6 mice (8-14 weeks). CD4^+ T cells (5×10^5 cells/well) were activated with 2 μg/ml of plate-bound anti-mouse CD3 (Biolegend, San Diego, USA), and 5 μg/ml of anti-mouse CD28 (Biolegend) into 24-well-plates. For Th17 differentiation, cells were cultured for 3 days in the presence of 1 ng/ml recombinant human transforming growth factor-β (TGF-β1, Biolegend), 50 ng/ml recombinant mouse interleukin-6 (IL-6, Biolegend), and 5 ng/ml recombinant mouse IL-23 (Biolegend), and 10 μg/ml anti-mouse interleukin-4 (IL-4, Biolegend) with or without the limonoid. For the Th1 differentiation, the cells were cultured for 3 days in the presence of 2 ng/ml recombinant mouse interleukin-2 (IL-2, Biolegend), and 20 μg/ml anti-mouse IL-4 (Biolegend) with or without indicated compounds. For the Th2 differentiation, the cells were cultured for 3 days in the presence of 2 ng/ml recombinant mouse IL-2 (Biolegend), and 20 ng/ml recombinant mouse IL-4 (Biolegend), and 20 μg/ml anti-mouse IFN-γ (Biolegend) with or without compound. For the Treg differentiation, the cells were cultured for 3 days in the presence of 1 ng/ml recombinant human TGF-β1 (Biolegend), and 5 ng/ml recombinant mouse IL-2 (Biolegend) with or without indicated compounds.
(§2) For polarization of Th17, the cells were re-stimulated in complete RPMI 1640 containing 50 ng/ml PMA, 1 μg/ml ionomycin, and 1× Brefeldin A (Biolegend) for 4 h. For polarization of Th1 and Th2, the cells were re-stimulated in complete RPMI 1640 containing 50 ng/ml PMA and 1 μg/ml ionomycin. After 1 h of incubation, 1× Monensin (Biolegend) was added and incubated for 4 h. The cells were collected and washed with Staining Buffer (BD Biosciences, New Jersey, USA), and then stained with PerCP/Cy5.5 anti-mouse CD4 (Biolegend). And then the cells were fixed for 15 min with fixation buffer (BD Biosciences), permeabilized with BD Wash buffer (1×; BD Biosciences), and stained with PE anti-mouse IL-17A (Biolegend), FITC anti-mouse IFN-γ (Biolegend), and APC anti-mouse IL-4 (Biolegend) or APC anti-mouse Foxp3 (eBioscience). The cells were analyzed by BD FACS Aria III, and the acquired data were analyzed using FlowJo software.

Th1 differentiation = assay: Flow cytometry, Th1 differentiation of naive CD4+ T cells (IFN-γ production); assay type: cell-based, C57BL/6 mice; details: for ratio of the IFN-γ producing Th1 differentiation: Th1-polarizing conditions, 3 days
Protocol: as §1, §2

Th2 differentiation = assay: Flow cytometry, Th2 differentiation of naive CD4+ T cells (IL-4 production); assay type: cell-based, C57BL/6 mice; details: for ratio of the IL-4 producing Th2 differentiation: Th2-polarizing conditions, 3 days
Protocol: as §1, §2

Treg differentiation = assay: Flow cytometry, Treg differentiation of naive CD4+ T cells (Foxp3 production); assay type: cell-based, C57BL/6 mice; details: for Foxp3 producing Treg differentiation: Treg-polarizing conditions, 3 days
Protocol: as §1, §2

Compound	cytotoxicity on human PBMCs [1]	ROR-γt luciferase reporter activity ([2]; 5 to 50 μM)	expression of ROR-γt protein (ROR-γt protein; 5 to 50 μM)	ratio of the IL-17 production (Th17 differentiation; 25 μM) [%]	Th17 cell differentiation (effect in words) (Th17 differentiation)	Th1 cell differentiation (effect in words) (Th1 differentiation; 25 μM)	ratio of the IFN-γ producing Th1 differentiation (Th1 differentiation; 25 μM)	Th2 cell differentiation (effect in words) (Th2 differentiation; 25 μM)	ratio of the IL-4 producing Th2 differentiation (Th2 differentiation; 25 μM) [%]	Treg cell differentiation (effect in words) (Treg differentiation; 25 μM)	ratio of the IL-17 production (Th17 differentiation; 10 μM) [%]	ratio of the IFN-γ producing Th1 differentiation (Th1 differentiation; 10 μM)	ratio of the IL-4 producing Th2 differentiation (Th2 differentiation; 10 μM)	ROR-γt luciferase reporter activity ([2]; 1 to 25 μM)	expression of ROR-γt protein (ROR-γt protein; 1 to 25 μM)	Th1 cell differentiation (effect in words) (Th1 differentiation; 10 μM)	Th2 cell differentiation (effect in words) (Th2 differentiation; 10 μM)	Treg cell differentiation (effect in words) (Treg differentiation; 10 μM)	Foxp3 producing Treg differentiation (Treg differentiation; 10 μM) [%]	Foxp3 producing Treg differentiation (Treg differentiation; 25 μM) [%]
C=C1[C@@H]([C@@]2(C)C=CC(=O)OC(C)(C)[C@@H]2CC(=O)OC)[C@@H](OC(C)=O)[C@H](OC(=O)C(C)CC)[C@@]2(C)[C@H](c3ccoc3)C[C@H]3O[C@]132 (stereo partly drawn) [Amotsangin A]	no significant cytotoxicity	dose-dependently reduced; also recorded: inhibits	dose-dependently reduced; also recorded: reduces	4.28	can suppress	no inhibitory effect	could not be changed	no inhibitory effect	14.8	no inhibitory effect										
C[C@H]1O[C@@H](O[C@H]2[C@@H](O)C[C@H](O[C@H]3[C@@H](O)C[C@H](O[C@H]4CC[C@@]5(C)[C@H](CC[C@@H]6[C@@H]5C[C@@H](O)[C@]5(C)[C@@H](C7=CC(=O)OC7)CC[C@]65O)C4)O[C@@H]3C)O[C@@H]2C)C[C@H](O)[C@@H]1O [digoxin, reference compound]											5.43	10.8% and 15.3% and 17.0%	15.0% and 10.2%							
C=C1[C@@H]([C@@]2(C)C=CC(=O)OC(C)(C)[C@@H]2CC(=O)OC)[C@@H](OC(C)=O)[C@H](OC(=O)C(O)C(C)CC)[C@@]2(C)[C@H](c3ccoc3)C[C@H]3O[C@]132 (stereo partly drawn) [Amotsangin C]	no significant cytotoxicity				can suppress						1.91	10.2%	8.7%	dose-dependently reduced; also recorded: reduces	reduced	inhibits; also recorded: can inhibit	inhibits	inhibits	8.49	
C=C1[C@@H]([C@@]2(C)C=CC(=O)OC(C)(C)[C@@H]2CC(=O)OC)[C@@H](OC(C)=O)[C@H](OC(=O)CC)[C@@]2(C)[C@H](c3ccoc3)C[C@H]3O[C@]132 [Amotsangin D]	no significant cytotoxicity	dose-dependently reduced; also recorded: reduces	reduces	1.59	can suppress	no inhibitory effect; also recorded: slight inhibitory effect	14.6%	could inhibit	11.9	no inhibitory effect										13.7
C=C1[C@@H]([C@@]2(C)C=CC(=O)OC(C)(C)[C@@H]2CC(=O)OC)[C@@H](OC(C)=O)[C@H](OC(=O)C(C)C)[C@@]2(C)[C@H](c3ccoc3)C[C@H]3O[C@]132 [Amotsangin B]	no significant cytotoxicity	dose-dependently reduced; also recorded: inhibits	reduces	1.08	can suppress	can inhibit	2.02%	can inhibit	4.11	no effect; also recorded: not effect										
